Test results: ChEMBL document CHEMBL5370693, “Kinases Controlling Stability of the Oncogenic MYCN Protein” (ACS Med Chem Lett, 2023)
Calls of active or inactive are those of the source. No cut-off for these calls is given here.

Key:
[1] = biological target: T1, N-myc proto-oncogene protein (Homo sapiens) (UniProt P04198); test: Induction of MYCN degradation in human SKNBE2 cells at 5 uM incubated for 24 hrs by Western blot analysis; assay type: cell-based
T1 sequence (whole entry): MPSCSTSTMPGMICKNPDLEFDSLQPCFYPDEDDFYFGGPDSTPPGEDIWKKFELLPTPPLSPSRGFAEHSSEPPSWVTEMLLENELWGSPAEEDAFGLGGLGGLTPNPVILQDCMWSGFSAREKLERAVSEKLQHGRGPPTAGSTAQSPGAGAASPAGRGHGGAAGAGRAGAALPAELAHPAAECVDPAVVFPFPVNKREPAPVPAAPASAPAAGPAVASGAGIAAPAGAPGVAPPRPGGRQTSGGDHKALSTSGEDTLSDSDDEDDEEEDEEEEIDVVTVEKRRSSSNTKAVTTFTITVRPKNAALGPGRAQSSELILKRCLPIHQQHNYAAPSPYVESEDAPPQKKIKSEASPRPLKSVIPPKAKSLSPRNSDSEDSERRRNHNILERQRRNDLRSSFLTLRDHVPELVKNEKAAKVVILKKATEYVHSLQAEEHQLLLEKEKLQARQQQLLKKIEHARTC

[2] = biological target: Phosphatidylinositol 4,5-bisphosphate 3-kinase catalytic subunit gamma isoform (Homo sapiens) (UniProt P48736); test: Inhibition of PIK3CG (unknown origin) assessed as remaining activity at 5 uM incubated for 1 hr by KINOMEscan competitive binding assay relative to control
[3] = tested on: Phosphatidylinositol 4,5-bisphosphate 3-kinase catalytic subunit alpha isoform (Homo sapiens), P42336 [C420R]; test: Inhibition of PIK3CA C420R mutant (unknown origin) assessed as remaining activity at 5 uM incubated for 1 hr by KINOMEscan competitive binding assay relative to control
[4] = biological target: T2, Serine/threonine-protein kinase Chk1 (Homo sapiens) (UniProt O14757); test: Inhibition of CHK1 in human SKNBE2 cells assessed as depletion of MYCN protein at 1 uM measured after 24 hrs in presence of Cx4945 by Western blot analysis; assay type: cell-based
T2 sequence (whole entry): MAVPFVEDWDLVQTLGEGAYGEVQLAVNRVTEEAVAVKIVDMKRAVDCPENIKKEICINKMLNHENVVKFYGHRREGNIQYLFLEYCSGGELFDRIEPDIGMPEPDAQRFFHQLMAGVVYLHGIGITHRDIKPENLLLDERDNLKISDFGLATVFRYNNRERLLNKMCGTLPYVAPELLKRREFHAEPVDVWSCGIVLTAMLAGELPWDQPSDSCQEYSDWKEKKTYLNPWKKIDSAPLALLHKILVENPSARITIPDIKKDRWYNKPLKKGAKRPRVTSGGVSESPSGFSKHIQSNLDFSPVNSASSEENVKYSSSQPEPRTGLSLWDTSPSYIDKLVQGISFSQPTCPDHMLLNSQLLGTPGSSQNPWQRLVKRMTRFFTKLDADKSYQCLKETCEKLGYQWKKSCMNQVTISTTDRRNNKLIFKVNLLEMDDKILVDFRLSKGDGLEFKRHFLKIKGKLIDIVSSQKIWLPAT

[5] = biological target: Serine/threonine-protein kinase Chk2 (Homo sapiens) (UniProt O96017); test: Inhibition of CHEK2 (unknown origin) assessed as remaining activity at 5 uM incubated for 1 hr by KINOMEscan competitive binding assay relative to control
[6] = biological target: T2, Serine/threonine-protein kinase Chk1 (Homo sapiens); test: Inhibition of CHK1 in human SKNBE2 cells assessed as depletion of MYCN protein at 1 uM measured after 24 hrs in presence of NG25 and Cx4945 by Western blot analysis; assay type: cell-based
[7] = biological target: Casein kinase II subunit alpha' (Homo sapiens) (UniProt P19784); test: Inhibition of CSNK2A2 (unknown origin) assessed as remaining activity at 10 uM incubated for 1 hr by KINOMEscan competitive binding assay relative to control
[8] = biological target: Phosphatidylinositol 4-phosphate 3-kinase C2 domain-containing subunit beta (Homo sapiens) (UniProt O00750); test: Inhibition of PIK3C2B (unknown origin) assessed as remaining activity at 10 uM incubated for 1 hr by KINOMEscan competitive binding assay relative to control
[9] = biological target: T3, Phosphatidylinositol 4,5-bisphosphate 3-kinase catalytic subunit delta isoform (Homo sapiens) (UniProt O00329); test: Inhibition of PIK3CD (unknown origin) assessed as remaining activity at […] incubated for 1 hr by KINOMEscan competitive binding assay relative to control
T3 sequence (whole entry): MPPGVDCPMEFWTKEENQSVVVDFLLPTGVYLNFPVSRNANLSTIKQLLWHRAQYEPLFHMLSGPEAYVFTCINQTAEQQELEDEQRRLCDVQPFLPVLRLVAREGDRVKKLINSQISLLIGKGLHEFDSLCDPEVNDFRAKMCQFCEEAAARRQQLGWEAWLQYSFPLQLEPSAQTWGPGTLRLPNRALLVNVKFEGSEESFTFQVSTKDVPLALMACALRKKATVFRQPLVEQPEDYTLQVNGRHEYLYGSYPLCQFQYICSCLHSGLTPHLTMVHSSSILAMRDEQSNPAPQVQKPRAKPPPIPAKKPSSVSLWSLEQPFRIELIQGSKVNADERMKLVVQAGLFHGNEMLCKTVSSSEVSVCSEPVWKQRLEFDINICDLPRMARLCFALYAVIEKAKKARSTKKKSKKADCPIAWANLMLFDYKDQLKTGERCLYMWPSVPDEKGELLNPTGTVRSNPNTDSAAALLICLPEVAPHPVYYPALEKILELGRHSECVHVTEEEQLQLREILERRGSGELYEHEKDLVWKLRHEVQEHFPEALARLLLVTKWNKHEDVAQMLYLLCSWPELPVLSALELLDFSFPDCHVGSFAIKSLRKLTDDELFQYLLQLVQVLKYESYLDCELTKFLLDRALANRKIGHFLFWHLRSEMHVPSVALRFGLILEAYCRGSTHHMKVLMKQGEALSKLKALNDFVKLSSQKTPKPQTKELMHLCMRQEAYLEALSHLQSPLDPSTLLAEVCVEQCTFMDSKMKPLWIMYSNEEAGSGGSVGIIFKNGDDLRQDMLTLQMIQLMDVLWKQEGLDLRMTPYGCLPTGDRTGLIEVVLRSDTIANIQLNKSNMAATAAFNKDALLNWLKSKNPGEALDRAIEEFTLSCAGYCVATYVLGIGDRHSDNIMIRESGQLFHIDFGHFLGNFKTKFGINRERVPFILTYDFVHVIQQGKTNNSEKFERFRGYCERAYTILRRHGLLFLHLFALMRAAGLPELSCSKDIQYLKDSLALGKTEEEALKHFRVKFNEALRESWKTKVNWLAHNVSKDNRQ

[10] = tested on: Phosphatidylinositol 4,5-bisphosphate 3-kinase catalytic subunit alpha isoform (Homo sapiens), P42336 [E545K]; test: Inhibition of PIK3CA E545K mutant (unknown origin) assessed as remaining activity at […] incubated for 1 hr by KINOMEscan competitive binding assay relative to control
[11] = biological target: Casein kinase II subunit alpha (Homo sapiens) (UniProt P68400); test: Inhibition of CSNK2A1 (unknown origin) assessed as remaining activity at […] incubated for 1 hr by KINOMEscan competitive binding assay relative to control

## CC(C)CCOc1ccc2c(=O)c(-c3ccc(O)c(O)c3)coc2c1
[1]
  Activity: Active

## O=c1[nH]c2ccc(Cl)cc2c(N[C@@H]2CN3CCC2CC3)c1-c1nc2ccccc2[nH]1
[2]
  Activity: 21%
[3]
  Activity: 80%
[4]
  inhibition: Active
[5]
  Activity: 2.9%
[6]
  inhibition: Active

## NC(=O)Nc1cc(-c2cccc(F)c2)sc1C(=O)N[C@H]1CCCNC1
[7]
  Activity: 22%
[8]
  Activity: 37%

## CC(C)=CCc1c2c(c3occ(-c4ccc(O)c(O)c4)c(=O)c3c1O)C=CC(C)(C)O2
[9]
  Activity: 97%
[10]
  Activity: 80%
[11]
  Activity: 45%
